# Measurements: patent US12059422B2 (MEI Pharma, Inc., priority 2011, dated 2024)
# Legend:
# [1] = biological target: T1, PI3K gamma (Homo sapiens, UniProt P48736); test: Luciferase-based luminescence assay (ADP Glo), PI3K gamma enzymatic activity; type: biochemical; details: inhibition of enzymatic activity, 25 μM ATP, read-out: IC50 p110γ
# T1 construct: purchased Invitrogen Corp., Carlsbad, CA, USA
# Outline: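 Final enzyme 4.8 nM PI3K beta or 7.6 nM PI3K gamma, with 50 μM PIP2 and 25 μM ATP, 1 h in HEPES pH 7.5 buffer with MgCl2, EGTA, NaCl, CHAPS and DTT. ADP formed measured by ADP-Glo luminescence; IC50 from 10-point curve fits.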
# [2] = biological target: T2, PI3Kγ (Mus musculus, UniProt Q9JHG7); test: ELISA assay for PI3Kγ: in-cell ELISA, phosphorylation of AKT (Ser473) in RAW 264.7 cells; type: cell-based; details: cellular, pAKT (Ser473), C5a stimulation, read-out: IC50 p110γ
# T2 construct: endogenous in cells; host or cells: RAW 264.7 (ATCC #TIB-71)
# Method: PI3K gamma (PI3Kγ) activity was determined by measuring the phosphorylation of AKT (Ser473) using an in-cell ELISA assay. RAW 264.7 (mouse macrophage) cells were obtained from ATCC (ATCC #TIB-71). Growth medium was DMEM (CellGro #CV-10-013-CV) supplemented with 10% fetal bovine serum, 100 IU/mL penicillin, 100 μg/mL streptomycin, and 1×MEM non-essential amino acids. Phosphate buffered saline (PBS) contained 2.7 M NaCl, 54 mM KCl, 86 mM […] (dibasic, anhydrous), and 28 mM […] (monobasic, anhydrous) at pH 7.2. Stimulation mixture (10×) was 500 ng/mL recombinant human complement component C5a (R&D systems #2037-C5-025) diluted in serum-free DMEM medium (CellGro #CV-10-013-CV). Compounds for testing were dissolved and serially diluted in 100% DMSO (total of 10 concentrations), then diluted in serum-free DMEM to 2× final assay concentration. Fixative solution (2×) was 8% formaldehyde (Amresco #M134) diluted in PBS. Permeabilization solution was PBS supplemented with 0.10% Triton X-100. Blocking buffer was obtained from LiCor (LiCor #927-40000). Wash buffer was PBS supplemented with 0.1% Tween-20. Primary antibody solution was rabbit anti-pAKT^S473 monoclonal antibody (Cell Signaling #4060) and mouse anti-total S6 (Santa Cruz #74459) diluted 1:500 and 1:2000, respectively, in the blocking buffer. Secondary antibody solution was IRDye 800CW-conjugated goat anti-rabbit IgG (LiCor #926-32211) and IRDye 680LT-conjugated goat anti-mouse IgG (LiCor #926-68020) diluted 1:1000 and 1:2000, respectively, in the blocking buffer.
# RAW 264.7 cells were subcultured in growth medium and seeded into flat, clear bottom, 96-well plates (Corning #3904) at 70000 cells/well, then incubated overnight in a 37° C., 5% CO2 incubator. Growth medium in plates was replaced with 100 μL/well serum-free DMEM and incubated overnight in a 37° C., 5% CO2 incubator. Fresh serum-free DMEM (50 μL/well) was added to plates. Compound treatment was performed by adding 50 μL/well of 2× compound mixture to plates and incubating for 2 hrs at 37° C., 5% CO2, after which 11 μL/well of 10× stimulation mixture was added and plates were incubated for 3 min at 37° C., 5% CO2. Fixation was performed by adding 110 μL/well of 2× fixative solution to plates and incubating for 20 min at room temperature. Permeabilization was performed by replacing fixation solution with 150 μL/well permeabilization solution and incubating for 10 min at room temperature. Permeabilization was repeated (for a total of 2 times). Permeabilization solution was replaced with 100 μL/well blocking buffer and plates were incubated for 1 hr at room temperature, after which 100 μL/well of primary antibody solution was added and plates were incubated overnight at 4° C. Plates were washed with wash buffer, after which 100 μL/well of secondary antibody solution was added to the plates and incubated in the dark for 1 hr at room temperature. Plates were washed with wash buffer, followed by awash with PBS. After completely removing PBS, plates were scanned on the Licor Odyssey Imager. Images were quantified using Licor Odyssey application software. IC50 values were determined by curve fitting using a Collaborative Drug Discovery database (www.collaborativedrug.com).
# T2 sequence (Q9JHG7 whole entry): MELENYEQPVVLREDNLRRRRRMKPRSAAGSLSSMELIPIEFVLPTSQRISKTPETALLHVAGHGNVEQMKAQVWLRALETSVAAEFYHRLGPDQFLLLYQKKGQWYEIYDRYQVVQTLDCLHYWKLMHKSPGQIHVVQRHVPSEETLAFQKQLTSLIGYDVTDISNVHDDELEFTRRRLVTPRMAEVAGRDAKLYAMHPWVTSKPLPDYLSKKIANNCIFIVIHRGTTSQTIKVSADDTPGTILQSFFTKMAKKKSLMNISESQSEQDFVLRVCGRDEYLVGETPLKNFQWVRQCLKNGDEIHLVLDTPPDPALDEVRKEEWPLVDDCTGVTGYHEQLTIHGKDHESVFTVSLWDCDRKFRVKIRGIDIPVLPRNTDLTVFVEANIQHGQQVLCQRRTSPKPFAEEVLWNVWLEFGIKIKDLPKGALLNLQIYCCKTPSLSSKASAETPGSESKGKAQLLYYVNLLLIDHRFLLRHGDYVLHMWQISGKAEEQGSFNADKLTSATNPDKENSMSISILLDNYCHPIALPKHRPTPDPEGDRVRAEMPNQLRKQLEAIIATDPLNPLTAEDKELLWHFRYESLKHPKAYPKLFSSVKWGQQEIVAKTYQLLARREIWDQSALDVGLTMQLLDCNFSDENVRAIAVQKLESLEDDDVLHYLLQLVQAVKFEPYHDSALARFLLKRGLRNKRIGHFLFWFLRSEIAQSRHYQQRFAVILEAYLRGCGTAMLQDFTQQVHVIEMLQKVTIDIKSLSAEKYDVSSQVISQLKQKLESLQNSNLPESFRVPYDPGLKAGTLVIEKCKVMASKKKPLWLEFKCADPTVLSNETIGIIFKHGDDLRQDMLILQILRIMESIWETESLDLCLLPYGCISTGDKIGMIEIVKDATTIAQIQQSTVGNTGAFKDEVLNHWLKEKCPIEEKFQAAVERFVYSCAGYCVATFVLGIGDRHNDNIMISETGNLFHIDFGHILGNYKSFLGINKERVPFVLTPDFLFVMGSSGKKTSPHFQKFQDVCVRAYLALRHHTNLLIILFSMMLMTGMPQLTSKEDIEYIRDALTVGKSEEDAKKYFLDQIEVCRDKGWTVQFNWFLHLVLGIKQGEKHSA
# T1 sequence (P48736 whole entry, species assumed): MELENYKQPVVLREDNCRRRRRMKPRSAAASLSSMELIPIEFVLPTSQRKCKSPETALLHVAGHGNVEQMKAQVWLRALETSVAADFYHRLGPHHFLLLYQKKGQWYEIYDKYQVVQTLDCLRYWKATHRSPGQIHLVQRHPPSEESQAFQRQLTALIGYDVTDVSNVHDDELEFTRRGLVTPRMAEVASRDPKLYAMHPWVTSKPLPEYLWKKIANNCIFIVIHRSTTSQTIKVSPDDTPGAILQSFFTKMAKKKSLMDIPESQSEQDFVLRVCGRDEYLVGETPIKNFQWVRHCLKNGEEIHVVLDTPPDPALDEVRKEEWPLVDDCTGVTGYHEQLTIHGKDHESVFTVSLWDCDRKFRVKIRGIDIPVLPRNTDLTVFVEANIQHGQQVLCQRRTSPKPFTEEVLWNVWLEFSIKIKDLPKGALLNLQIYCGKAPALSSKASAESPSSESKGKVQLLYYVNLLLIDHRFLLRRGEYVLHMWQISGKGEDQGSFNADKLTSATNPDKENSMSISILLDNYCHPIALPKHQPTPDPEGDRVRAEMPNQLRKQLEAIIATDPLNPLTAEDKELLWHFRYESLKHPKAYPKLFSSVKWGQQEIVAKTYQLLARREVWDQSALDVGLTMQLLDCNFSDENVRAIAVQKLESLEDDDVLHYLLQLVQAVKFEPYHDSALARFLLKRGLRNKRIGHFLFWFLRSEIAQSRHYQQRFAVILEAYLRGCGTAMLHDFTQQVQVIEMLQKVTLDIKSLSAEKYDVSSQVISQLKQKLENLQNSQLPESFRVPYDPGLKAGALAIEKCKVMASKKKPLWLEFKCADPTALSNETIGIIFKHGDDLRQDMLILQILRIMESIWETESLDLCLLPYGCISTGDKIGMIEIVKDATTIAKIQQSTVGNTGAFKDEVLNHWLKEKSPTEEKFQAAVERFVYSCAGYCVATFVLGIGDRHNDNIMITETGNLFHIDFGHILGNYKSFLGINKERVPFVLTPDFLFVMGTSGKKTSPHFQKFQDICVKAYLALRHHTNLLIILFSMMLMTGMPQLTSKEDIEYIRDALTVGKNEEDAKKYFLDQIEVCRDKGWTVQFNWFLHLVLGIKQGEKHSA
smiles,measurement,setting,value
"CN(C)CCCc1ccccc1CC(C)(C)Nc1nc(N2CCOCC2)nc(-n2c(C(F)F)nc3ccccc32)n1 [Compound A76, 4-(2-(difluoromethyl)-1H-benzo[d]imidazol-1-yl)-N-(1-(2-(3-(dimethylamino)propyl)phenyl)-2-methylpropan-2-yl)-6-morpholino-1,3,5-triazin-2-amine]",IC50,[1],> 0.5 µM
same,IC50,[2],> 0.5 µM
